# Like-named read-outs stand apart in the source and are kept apart here.
# How the values were obtained:
# [1] = NOAEL, repeated daily doses in the animal; assay type: in vivo; details: extrapolated from the animal NOAEL
# Experimental: In man the NOAEL is 6 mg.
# [2] = doses repeated daily in the animal; cited from earlier work
# [3] = in man; cited from earlier work
# [4] = molecular target: T1, HMG-CoA reductase (HMG-CoA-r) (Homo sapiens, UniProt P04035); details: competitive enzymatic inhibition; cited from earlier work
# T1 sequence (P04035 1-888): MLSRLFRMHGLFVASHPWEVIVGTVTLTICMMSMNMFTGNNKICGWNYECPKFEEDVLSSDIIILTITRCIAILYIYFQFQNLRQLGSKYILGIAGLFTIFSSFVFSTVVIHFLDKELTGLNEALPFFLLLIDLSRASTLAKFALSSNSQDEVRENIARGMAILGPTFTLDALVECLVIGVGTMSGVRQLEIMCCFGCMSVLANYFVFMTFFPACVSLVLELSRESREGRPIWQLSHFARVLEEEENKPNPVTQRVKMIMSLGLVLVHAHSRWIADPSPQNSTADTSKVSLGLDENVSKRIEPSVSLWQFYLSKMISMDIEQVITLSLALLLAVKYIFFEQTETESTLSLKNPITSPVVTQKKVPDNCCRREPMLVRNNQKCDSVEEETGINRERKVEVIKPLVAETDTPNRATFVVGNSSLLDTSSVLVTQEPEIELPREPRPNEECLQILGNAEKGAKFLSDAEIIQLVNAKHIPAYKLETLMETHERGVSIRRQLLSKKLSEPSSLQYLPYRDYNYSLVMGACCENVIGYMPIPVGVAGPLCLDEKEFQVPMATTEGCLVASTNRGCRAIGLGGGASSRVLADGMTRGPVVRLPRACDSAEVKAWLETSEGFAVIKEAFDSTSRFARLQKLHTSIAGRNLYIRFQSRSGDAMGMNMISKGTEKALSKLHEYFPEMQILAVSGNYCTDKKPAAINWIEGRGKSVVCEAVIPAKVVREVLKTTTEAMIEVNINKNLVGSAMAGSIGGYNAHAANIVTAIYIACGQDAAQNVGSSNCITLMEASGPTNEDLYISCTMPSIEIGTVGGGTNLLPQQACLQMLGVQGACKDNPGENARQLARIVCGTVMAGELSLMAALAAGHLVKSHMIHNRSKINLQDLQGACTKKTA
SMILES,"NOAEL of the animal, corresponding amount in man [1]",NOAEL (no observed adverse effect level) [2],NOAEL (no observed adverse effect level) [3],activity for the enzyme relative to the natural substrate HMG-CoA [4]
"CC1=C(/C=C/C(C)=C/C=C/C(C)=C/C=C/C=C(C)/C=C/C=C(C)/C=C/C2=C(C)C(=O)[C@@H](O)CC2(C)C)C(C)(C)C[C@H](O)C1=O [AX, 3,3′-dihydroxy-β,β′-carotene-4,4′-dione]",more than 80 g,1340 mg/kg,6 mg,
CC[C@H](C)C(=O)O[C@H]1C[C@@H](C)C=C2C=C[C@H](C)[C@H](CC[C@@H]3C[C@@H](O)CC(=O)O3)[C@H]21 [Monacolin K],,,,2000 times
